# Assay results from patent US20150005269A1, “Treatment of Heart Failure and Sudden Cardiac Death” (Rhode Island Hospital, priority 2012, published 2015).
# Test system: SERCA2
# Experiment: SERCA2 protein level by Western blot in cultured neonatal rabbit ventricular cardiomyocytes
# Type: cell-based
# Conditions: cultured neonatal rabbit ventricular cardiomyocytes (NRbVCM), 50 nM RU486 for 48 hours, normalized against GAPDH
# Description: Protein level of SERCA2 was analyzed by western blots. All measurements were normalized against GAPDH. Bar graphs represent the averages of three independent experiments plus S.D. in arbitrary unit. * p<0.05. […] Ventricular cardiomyocytes were isolated in neonatal wild type NZW rabbits (3-5 days old, 70-110 g) with enzymatic techniques. The hearts were removed from euthanized rabbits and perfused for 5 to 7 minutes with a free solution containing 140 mM NaCl, 4.4 mM KCl, 1.5 mM MgCl2, 0.33 mM NaH2PO4, 16 mM taurine, 5 mM HEPES, 5 mM pyruvic acid, and 7.5 mM glucose. Subsequently, the hearts were perfused for 10 to 15 minutes with the same solution to which 0.3 mg/ml collagenase was added. The whole ventricles were cut off and minced, and the cells were dispersed in a solution containing 45 mM KCl, 65 mM K-glutamate, 3 mM MgSO4, 15 mM KH2PO4, 16 mM taurine, 10 mM HEPES, 0.5 mM EDTA, and 10 mM glucose (pH 7.3). The cell suspension was filtered through a 100-pm cell strainer and kept at room temperature for one hour. Thereafter, the cells were gradually recovered with MEM, in which Ca^2+ concentration was increased from 100 μM, 500 μM, 1000 μM and 1800 μM. Every well of six-well plate was seed one million cells, cultured in DMEM (Lonza 12-[MUT],) with 7% FBS and 100 μM of BrdU. Medium was changed every 24 to 48 hours. […] The SERCA2 is detected by anti-SERCA2 antibody. […]
structure (smiles),measurement,value
"CC#C[C@]1(O)CC[C@H]2[C@@H]3CCC4=CC(=O)CCC4=C3[C@@H](c3ccc(N(C)C)cc3)C[C@@]21C [RU486, Mifepristone]",increase of the expression of SERCA2 polypeptides,60%
